Source: US20030194409A1, “Conjugate heat shock protein-binding peptides” (priority 2002, published 2003)
Where two headings read alike, the source gives them in different places.

Key:
[1] = biological target: T1, gp96 in the presence of herbimycin A (Mus musculus, UniProt P08113); assay: Affinity panning of phage display heptapeptide library on gp96 in the presence of herbimycin A; type: binding; conditions: for % actual (amino acid frequency in sequenced gp96-binding phage-expressed heptapeptides): TWEEN 20
T1 construct: The mouse cDNA encoding mature gp96 (i.e., wherein the endoplasmic reticulum signal peptide has been removed) was incorporated into the pET 11 a expression vector; made in house; host or cells: Escherichia coli BL21 (pET11gp96)
T1 sequence (P08113 22-802): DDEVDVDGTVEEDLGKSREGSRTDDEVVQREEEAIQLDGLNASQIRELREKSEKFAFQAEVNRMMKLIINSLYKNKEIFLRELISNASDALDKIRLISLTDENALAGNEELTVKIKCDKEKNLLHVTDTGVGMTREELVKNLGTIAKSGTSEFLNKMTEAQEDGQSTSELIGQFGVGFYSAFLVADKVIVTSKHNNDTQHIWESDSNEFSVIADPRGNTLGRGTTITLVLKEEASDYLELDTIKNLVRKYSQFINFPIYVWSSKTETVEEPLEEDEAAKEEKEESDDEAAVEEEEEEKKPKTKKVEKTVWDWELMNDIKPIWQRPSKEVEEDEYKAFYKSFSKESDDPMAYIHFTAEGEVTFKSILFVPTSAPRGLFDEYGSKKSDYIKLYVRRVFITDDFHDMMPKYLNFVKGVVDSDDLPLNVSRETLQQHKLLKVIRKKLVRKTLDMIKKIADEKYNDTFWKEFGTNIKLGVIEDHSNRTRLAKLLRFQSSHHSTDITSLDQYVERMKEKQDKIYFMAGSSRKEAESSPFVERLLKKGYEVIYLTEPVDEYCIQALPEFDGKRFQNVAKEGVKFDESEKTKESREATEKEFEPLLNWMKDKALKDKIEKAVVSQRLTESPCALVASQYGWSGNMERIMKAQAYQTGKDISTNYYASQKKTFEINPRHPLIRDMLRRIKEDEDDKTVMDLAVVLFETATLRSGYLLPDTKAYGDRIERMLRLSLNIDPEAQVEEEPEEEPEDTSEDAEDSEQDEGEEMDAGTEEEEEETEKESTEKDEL
Method: Preparation of a gp96 expression vector. The mouse cDNA encoding mature gp96 (i.e., wherein the endoplasmic reticulum signal peptide has been removed) was incorporated into the pET 11 a expression vector (Novagen) as follows. Gp96 cDNA insert was prepared by polymerase chain reaction (PCR) of a pRc/CMV clone containing the cDNA using the following oligonucleotide primers: […]
Expression of gp96. pET11gp96 was transformed into BL21 Escherichia coli cells, and plated on LB plates containing ampicillin (50 μg/ml). One of the resulting colonies was used to inoculate a 20 ml overnight culture of 2×TY medium containing ampicillin (150 μg/ml). The following day, the resulting culture was spun down and the harvested bacteria were resuspended in 1 ml of fresh medium. Two one liter cultures were then each inoculated with 0.5 ml of the harvested cells and allowed to grow at 37° C. until the optical density, measured at 600 nm, was 0.5. Then, IPTG was added to a concentration of 1 mM and the cells were cultured for another 3 hours before being harvested by centrifugation. The resulting cell pellet was resuspended in 20 ml of 50 mM HEPES pH 7.5, 50 mM KCl, 5 mM MgAcetate, 20% sucrose and 1 mM PMSF. Cell extracts were prepared by pressure shearing in a French Press. The lysates were then spun at 100,000×g for 1.5 hours and the supernatant, which constituted crude gp96 extract, was collected.
Purification of gp96. The following steps were all performed at 4° C. A 12.5 cm×3.2 cm column of DE52 resin (Whatman) was equilibrated in a solution of 50 mM MOPS pH 7.4, 10 mM NaCl, 5 mM MgAcetate (hereafter, “Buffer A”). The crude gp96 extract was diluted 2-fold and immediately loaded onto the column at a flow rate of 2 ml/min. Elution from the column was achieved using a gradient of a solution of 50 mM MOPS pH 7.4, 1M NaCl, 5 mM MgAcetate (hereafter, “Buffer B”) from 0% to 100% Buffer B over 1000 ml. The elution profile was examined by subjecting fractions collected from the column to SDS-PAGE analysis. Fractions containing gp96 were pooled and diluted 2-fold with cold water, and were immediately run onto the next column (see below).
A 10 cm×1 cm column of hydroxyapatite (BioRad) was washed with 100 ml 0.5 M K2HPO4, 50 mM KCl pH 7.4 and then equilibrated with 10 mM K2HPO4, 50 mM KCl pH 7.4. The pooled diluted fractions from the DE52 column were loaded onto this column at a flow rate of 1 ml/min. The gp96 protein was eluted in a gradient of 10-500 mM K2HPO4 over 800 ml. Fractions containing gp96 were pooled and loaded onto the phenylsepharose column described below.
A 9 cm×3 cm column of phenylsepharose (Pharmacia) was equilibrated with 500 mM NaCl, 50 mM MOPS pH 7.4. The pooled fractions containing gp96 from the hydroxyapatite were loaded onto this column at 1 ml/min and the gp96 was eluted in a gradient of 500-0 mM NaCl over 800 ml. The gp96 containing fractions collected from the column were identified by SDS-PAGE, pooled, and concentrated.
The gp96 was then loaded onto a Hi Load 26/60 Superdex-200 column (Pharmacia) equilibrated with 100 mM NaCl, 5 mM MgAcetate, 50 mM MOPS pH 7.5, 3 ml fractions were collected, and the fractions containing the most pure gp96 (as identified by SDS PAGE using a 12 percent reducing gel) and pooled. To the pooled fractions, glycerol was added to 10% (v/v), and then the fractions were concentrated to 21 mg/ml on a Centricon-50 concentrator (Amicon), frozen using liquid nitrogen, and stored at −80° C.
Affinity panning. The Ph.D. Phage Display Library Kit (New England BioLabs, Beverly, Mass.), was used for affinity panning. For each panning experiment, a well of a 96-well polystyrene microtiter plate (each well having a 6 mm diameter) was filled with 150 μl of a solution of 200 μg/ml of gp96 in 0.1 M NaHCO3 pH 8.3. If herbimycin A was to be included in the experiment, 1 μl of 10 mg/ml herbimycin A (GIBCO) in DMSO was added to each well, corresponding to a 50-fold molar excess relative to gp96. […]

[2] = biological target: T1, gp96 in the presence of herbimycin A; conditions: expected frequency for comparison with % actual, cited from earlier work
[3] = Table XII, gp96 and herbimycin A, binding buffer without calcium: 20 mM HEPES pH 7.5, 100 mM KCl, 1 mM DTT, 1 mM MgAcetate, 42 phage-expressed peptides sequenced
[4] = Table XIV, gp96 in the presence of herbimycin A, binding buffer with ATP: 20 mM HEPES pH 7.5, 100 mM KCl, 1 mM CaCl2, 1 mM MgAcetate, 1 mM ATP
[5] = Table XVI, binding buffer with AMP-PNP instead of ATP: 20 mM HEPES pH 7.5, 100 mM KCl, 1 mM CaCl2, 1 mM MgAcetate, 1 mM AMP-PNP

Compound	% actual (amino acid frequency in sequenced gp96-binding phage-expressed heptapeptides) [1, 3]	% actual (amino acid frequency in sequenced gp96-binding phage-expressed heptapeptides) [1, 4]	% actual (amino acid frequency in sequenced gp96-binding phage-expressed heptapeptides) [1, 5]	binding of phage-expressed peptides to gp96 ([1]; 20 mM HEPES pH 7.5, 100 mM KCl, 25 mM CaCl2, 5 mM MgAcetate, TWEEN-20, herbimycin A present)	% expected (amino acid frequency) ([2]; Table XII)	% expected (amino acid frequency) ([2]; Table XIV)	% expected (amino acid frequency) ([2]; Table XVI)
N[C@@H](CS)C(=O)O [Cys]	0%	0%	0%	–	0.8%	0.8%	0.8%
N=C(N)NCCC[C@H](N)C(=O)O [Arg]	2.72%	5.35%	5.7%	–	3.9%	3.9%	3.9%
NCC(=O)O [Gly]	3.74%	1.78%	1.4%	–	3.7%	3.7%	3.7%
N[C@@H](Cc1c[nH]cn1)C(=O)O [His]	5.44%	10.7%	12.8%	–	4.3%	4.3%	4.3%
NC(=O)CC[C@H](N)C(=O)O [Gln]	2.0%	1.78%	5.7%	–	6.4%	6.4%	6.4%
N[C@@H](CCC(=O)O)C(=O)O [Glu]	2.0%	0%	0%	–	1.2%	1.2%	1.2%
N[C@@H](CC(=O)O)C(=O)O [Asp]	2.04%	0%	1.4%	–	2.1%	2.1%	2.1%
C[C@H](N)C(=O)O [Ala]	10.2%	3.57%	8.5%	–	7.2%	7.2%	7.2%
CC(C)C[C@H](N)C(=O)O [Leu]	12.92%	10.7%	5.7%	–	11.8%	11.8%	11.8%
NC(=O)C[C@H](N)C(=O)O [Asn]	3.06%	5.3%	5.7%	–	4.1%	4.1%	4.1%

Now from value to compound, other results behind:

% actual (amino acid frequency in sequenced gp96-binding phage-expressed heptapeptides) [1, 3]	% actual (amino acid frequency in sequenced gp96-binding phage-expressed heptapeptides) [1, 4]	% actual (amino acid frequency in sequenced gp96-binding phage-expressed heptapeptides) [1, 5]	binding of phage-expressed peptides to gp96 ([1]; 20 mM HEPES pH 7.5, 100 mM KCl, 25 mM CaCl2, 5 mM MgAcetate, TWEEN-20, herbimycin A present)	Compound	% expected (amino acid frequency) ([2]; Table XII)	% expected (amino acid frequency) ([2]; Table XIV)	% expected (amino acid frequency) ([2]; Table XVI)
10.88%	16.0%	4.28%	–	N[C@@H](CO)C(=O)O [Ser]	11.4%	11.4%	11.4%
1.36%	3.57%	2.85%	–	N[C@@H](Cc1c[nH]c2ccccc12)C(=O)O [Trp]	1%	1%	1%
4.08%	5.3%	8.5%	–	CC(C)[C@H](N)C(=O)O [Val]	4.3%	4.3%	4.3%
2.38%	0%	2.85%	–	N[C@@H](Cc1ccccc1)C(=O)O [Phe]	2.9%	2.9%	2.9%
4.76%	7.1%	4.28%	–	N[C@@H](Cc1ccc(O)cc1)C(=O)O [Tyr]	2.9%	2.9%	2.9%
10.88%	14.2%	12.8%	–	O=C(O)[C@@H]1CCCN1 [Pro]	12%	12%	12%
–	–	–	appeared to be favored	Phe-His-Trp-Trp-Trp (FHWWW; printed: Phe-His-Trp-Trp-Trp)	–	–	–
3.74%	0%	2.85%	–	NCCCC[C@H](N)C(=O)O [Lys]	1.7%	1.7%	1.7%
